Measured values taken from patent US11992011B2, “Compounds for controlling plant pathogens” (VIB VZW, priority 2017, dated 2024).

Key:
[1] = tested on: Pseudomonas syringae (pv. DC3000); assay: Pseudomonas syringae infection experiment in tomato (Example 21); format: in vivo; settings: PA foliar spray
Description: Tomato plants (Solanum lycopersicum cv. Moneymaker) were grown in potting soil as described in the plant materials section until the fourth leaf stage. Plants were treated with a piperonylic acid or control spray as described in the chemicals section. Twenty-four hours before inoculation, the tomato plants were placed in a sealed cloche to keep humidity at 100%.
A glycerol stock of P. syringae pv. DC3000 kept at−80° C. was spotted on petri dishes containing King's B agar amended with 75 μg/ml rifampicine (Duchefa Biochemie, Haarlem, the Netherlands). The plates were incubated in the dark at 28° C. for one week. At this time point, glass test tubes containing 5 ml of liquid King's B each (without rifampicin) were inoculated with cells from the plates and placed on an orbital shaker at 200 rpm for 24 hours at 28° C. 100 μl of this liquid inoculum was transferred to fresh glass test tubes containing 5 ml of liquid King's B each (without rifampicin), which were placed on an orbital shaker at 200 rpm for 24 hours at 28° C.
At this time point, the liquid culture was diluted with fresh King's B medium to an OD of 1.0. This medium was then centrifuged at 3000 rpm for ten minutes; the supernatant was discarded and the cells were resuspended in 10 mM MgSO4 to an OD of 0.20. To this inoculum, 0.01 v/v % Silwet 77 surfactant was added.
Whole tomato plants were inoculated by briefly dipping them in a beaker of the aforementioned inoculum. After dipping, plants were placed back in the sealed cloche for 12 hours. […]
Due to the difference in disease progression, two different scoring systems were used. In the first experiment, the number of lesions per plant was counted three days after inoculation and the percentage of leaf area covered by lesions was quantified using the ImageJ software after seven days. In the second experiment, each fully developed leaf was scored on a disease scale between 0 and 4 as follows: 0=no visible symptoms; 1=isolated lesions; 2=large lesions, covering <50% of leaf area; 3=lesions covering more than half of the leaf area; 4=leaf irreversibly shriveled or abscised. […]

[2] = tested on: Alternaria solani, Botrytis cinerea R16, Fusarium graminearum PH1 and Fusarium graminearum GFP; format: cell-based
Meloidogyne graminicola = Meloidogyne graminicola infection in rice cv. Kitaake, additional C4H inhibitors (Example 6); format: in vivo; settings: foliar spray, N=8
Description: (§1) Unless otherwise mentioned, all chemicals for nematode experiments were applied as a foliar spray consisting of the target compound at a concentration of 300 μM together with 0.1% (v/v) Tween 20 surfactant (Calbiochem) in distilled water. Again unless otherwise mentioned, all treatments for the nematode experiments were carried out three times: one and eight days before pathogen inoculation and seven days after pathogen inoculation. In all cases, plants were sprayed until run-off with an atomizer.
Infection experiments with M. graminicola were performed by inoculating host plants 14 days after transfer to SAP by introducing the desired amount of J2 juveniles next to the root system using a micro pipette. Rice plants (cv. Nipponbare or Kitaake) were inoculated with 250 J2 juveniles per plant; wheat plants (cv. Sahara) were inoculated with 600 J2 juveniles per plant. Plants were harvested 14 days after inoculation. At this point, the plants were phenotyped by measuring the shoot and root length with a ruler, counting the number of adventitious roots and in some experiments by measuring leaf area using the EasyLeafArea software (Easlon and Bloom, 2014) and by determining shoot dry mass after 72 hours of drying in an oven at 70° C. Root systems were then stained in acid fuchsine as described in (Byrd et al., 1983) and left to destain in glycerol with 1 ml/l fuming HCl added for approximately ten days. The number of galls and nematodes was then counted using a binocular microscope.
Four different C4H inhibitors were used: piperonylic acid (PA), piperine (PIP), 4-propynyloxybenzoic acid (4PB) and 3-(4-pyridyl)acrylic acid (3PA).

[3] = tested on: spring wheat (Triticum aestivum cv. Fielder); assay: Yield and fertility in pathogen-free spring wheat (Example 2); settings: 300 μM foliar spray three times; vs. control
Description: For Example 2, the spring wheat cultivar Fielder was used. Seeds were obtained from plants grown in the greenhouse complex of the VIB (Zwijnaarde, Belgium). Seeds were sown directly in potting soil (four seeds to a pot, thinned to three plants per pot after emergence) and placed in a growth chamber at 21° C. with 16 hours per day of light. These plants were grown until harvest; they were sprayed three times with the compounds of the invention at a concentration of 300 μM using the protocol described in the chemicals section. Spraying took place 14 and 21 days after emergence and a final time at heading.
In all cases model assumptions were verified using diagnostic plots (residuals, QQ-plot, scale-location and residuals-leverage). Outliers were removed only if they were outliers both in the statistical sense and if there was a biological reason for removal (e.g. the plant was stunted or developed a secondary infection).
To determine the effects of C4H inhibition on yield and fertility, spring wheat (Triticum aestivum cv. Fielder) was grown in a pathogen-free growth chamber until maturity and treated with a control or C4H inhibitor-containing foliar spray at regular intervals. At harvest, the number of ears per plant, the seed mass, the size of the seeds and the germination ability of the freshly harvested seeds were measured. Seed size was measured using the stacking density of the seed as a proxy measure; if a given seed mass takes up a greater volume, then the individual seeds must be larger.

wheat = assay: Phytotoxicity of foliar spray in uninfected wheat (Example 1); format: in vivo, Triticum aestivum; settings: 500 μM foliar spray, 8 plants per treatment
Description: For Examples 1, 5 and 10, seeds of the winter wheat cultivar Sahara (Aveve Agrarisch, Landen, Belgium) were used. Seeds were washed in a 10% ethanol solution to remove any residual traces of fungicide and then germinated on wet paper at room temperature for four days; seeds were transferred to SAP tubes and placed in a growth chamber (25° C., 16 hours per day of light). Plants were watered with 8 ml of half-strength Hoagland solution every two days for the first ten days and with 8 ml of full strength Hoagland solution every two days afterwards.
as §1
Short-term phytotoxicity experiments (Example 1) were analyzed using non-parametric methods. For each variable, overall significance was determined using the Kruskal-Wallis test (Kruskal and Wallis, 1952), followed by a posthoc Conover-Iman test (Conover and Iman, 1981) with Hommel multiplicity correction (Hommel, 1988) if the Kruskal-Wallis test was significant. When only two groups were present, the Wilcoxon-Mann-Whitney test was used (Mann and Whitney, 1947).
To test whether C4H inhibitors induce phytotoxic effects in crops, uninfected tomato, wheat and carrot were treated with piperonylic acid (PA), 4-iodobenzoic acid (4-IBA) and piperic acid (PIA) at a concentration of 500 μM through foliar application. At harvest, leaf area (or shoot length in the case of wheat) and primary root length were recorded. The BBCH developmental stage (Lancashire et al., 1991), a measure of developmental retardation, was used to test for effects on development. Finally, the presence of visible signs of phytotoxicity such as chlorosis, discoloration or necrosis was recorded.

O=C(O)c1ccc2c(c1)OCO2 [PA, Piperonylic acid]
mean percentage of leaf area covered by lesions ([1]; first experiment, after seven days): reduced
change of total number of lesions per plant ([1]; first experiment, three days after inoculation, vs control): −25%
reduction of mean plant disease index ([1]; second experiment, scale 0 to 4): 20%
germination of fungal spores on agar [2]: germinated normally
mycelium growth compared to control agar [2]: slight (species-specific) growth retardation
reduction in the number of galls compared to the control group (Meloidogyne graminicola): −40%
Total yield (seed mass) [3]: not significantly different
germination after fourteen days of freshly harvested seeds [3]: not significantly different
mean number of ears per plant [3]: the same in all treatments
seed size (stacking density) [3]: no effect
Root length (wheat; mean ± standard deviation): 15.75 ± 2.64 cm
Shoot length (wheat; mean ± standard deviation): 31.75 ± 2.84 cm
BBCH stage (wheat; median ± interquartile range): 13 ± 0
